In paper PMC9967275, “Screening the Pathogen Box to Discover and Characterize New Cruzain and TbrCatL Inhibitors” (Pathogens, 2023):
Where two headings read alike, the source gives them in different places.

Legend:
TbrCatL = molecular target: T1, TbrCatL (Trypanosoma brucei rhodesiense, UniProt Q95PM0); experiment: TbrCatL enzymatic inhibition assay (cleavage of fluorogenic substrate Z-FR-AMC); format: biochemical; details: for TbrCatL 0’ Inhibition / TbrCatL 10’ Inhibition: sheet "Screening results";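 on TbrCatL 0’ Inhibition: at 5 µM compound concentration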;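 on TbrCatL 10’ Inhibition: at 5 µM compound concentration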;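 on TbrCatL Inhibition 0’: at 5 µM compound concentration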;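 on TbrCatL Inhibition 10’: at 5 µM compound concentration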
T1 construct: Conor Caffrey (University of California San Diego)
T1 sequence (Q95PM0 entry or part of it): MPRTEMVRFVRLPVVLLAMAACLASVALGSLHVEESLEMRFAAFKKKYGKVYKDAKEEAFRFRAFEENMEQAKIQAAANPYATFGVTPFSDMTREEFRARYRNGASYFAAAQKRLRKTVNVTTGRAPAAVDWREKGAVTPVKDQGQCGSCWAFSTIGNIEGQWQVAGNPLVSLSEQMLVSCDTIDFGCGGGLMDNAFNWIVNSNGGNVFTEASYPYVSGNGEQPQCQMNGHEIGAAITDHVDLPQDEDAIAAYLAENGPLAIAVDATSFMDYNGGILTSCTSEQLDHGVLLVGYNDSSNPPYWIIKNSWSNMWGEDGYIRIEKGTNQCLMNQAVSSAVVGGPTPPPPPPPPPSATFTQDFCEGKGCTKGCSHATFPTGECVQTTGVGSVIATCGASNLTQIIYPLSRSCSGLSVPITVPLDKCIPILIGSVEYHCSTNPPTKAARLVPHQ
Description: (§1) Allison Doak and Prof. Brian Shoichet (University of California San Francisco, San Francisco, CA, USA) and Prof. Conor Caffrey (University of California San Diego, San Diego, CA, USA) generously provided recombinant cruzain and TbrCatL, respectively. In vitro activity of proteases cruzain and TbrCatL was assayed as previously described. Briefly, enzyme activity was measured by monitoring the cleavage of the fluorogenic substrate […] (Z-FR-AMC) at 25 °C. Fluorescence was monitored at 340/440 nm (excitation/emission) over 5–7 min in a Synergy2 Biotek plate reader. […] DMSO and 1 μM E-64 were employed as negative and positive controls, respectively, in all assays. Two conditions were employed for both enzymes: 10′ pre-incubation of the enzyme in the presence of the compound (10′ inc) and no pre-incubation (0′). Reported values correspond to the mean and standard error of the mean (SEM) and all analyses were performed using GraphPad Prism 6.0.
(§2) For the initial screening, compounds were assayed at 5 μM. […] IC50 curves were obtained from a non-linear fit of at least seven distinct compound concentrations, in triplicate. Reported IC50 values are the mean and SEM of two independent measurements.

cruzain = cruzain (Trypanosoma cruzi, UniProt P25779); experiment: biochemical;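 on Cruzain 0’ Inhibition: at 5 µM compound concentration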;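 on Cruzain 10’ Inhibition: at 5 µM compound concentration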;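 on Cruzain Inhibition 0’: at 5 µM compound concentration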;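 on Cruzain Inhibition 10’: at 5 µM compound concentration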
Chain of cruzain (P25779 123-337 limits assumed): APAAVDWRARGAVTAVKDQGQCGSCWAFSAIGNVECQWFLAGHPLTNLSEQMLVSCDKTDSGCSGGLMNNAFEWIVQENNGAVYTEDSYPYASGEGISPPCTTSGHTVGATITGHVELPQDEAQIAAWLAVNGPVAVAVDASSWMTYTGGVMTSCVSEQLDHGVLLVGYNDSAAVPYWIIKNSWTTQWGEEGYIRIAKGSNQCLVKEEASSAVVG
Description: as §1, §2

[1] = 0’ (pre-incubation time), sheet "Screening results"
[2] = 10’ (pre-incubation time), sheet "Screening results"
[3] = 0’ (no pre-incubation), sheet Screening results
[4] = 10’ (pre-incubation), sheet Screening results
[5] = 0’ (pre-incubation time), Pathogen Box screening results
[6] = 10’ (pre-incubation time), Pathogen Box screening results

| Compound | TbrCatL 0’ Inhibition (TbrCatL; 0’ (pre-incubation time)) [%] | TbrCatL 10’ Inhibition (TbrCatL; 10’ (pre-incubation time)) [%] | Cruzain 0’ Inhibition (cruzain; [1]) [%] | Cruzain 10’ Inhibition (cruzain; [2]) [%] | TbrCatL Inhibition 0’ (TbrCatL; [3]) [%] | TbrCatL Inhibition 10’ (TbrCatL; [4]) [%] | Cruzain Inhibition 0’ (cruzain; [3]) [%] | Cruzain Inhibition 10’ (cruzain; [4]) [%] | further results |
| --- | --- | --- | --- | --- | --- | --- | --- | --- | --- |
| CCn1cnc2c(Nc3cc(F)cc(F)c3)nc(C#N)nc21 [MMV676881, reference compound] | – | – | – | – | – | – | – | – | Inhibition at 5 µM (Mean ± SEM %) TbrCatL 10′ inc (TbrCatL; 5 µM, 10′ pre-incubation, initial screening): fully inhibited; Inhibition at 5 µM (Mean ± SEM %) TbrCatL 0′ (TbrCatL; 5 µM, no pre-incubation, initial screening): fully inhibited; inhibition at 5 µM (TbrCatL; read-out: Inhibition at 5 µM (Mean ± SEM %) TbrCatL 0′): 100%; inhibition at 5 µM (TbrCatL; read-out: Inhibition at 5 µM (Mean ± SEM %) TbrCatL 10′ inc): 100 ± 2%; inhibition at 5 µM (TbrCatL; read-out: TbrCatL 0’ Inhibition): 104%; inhibition at 5 µM (TbrCatL; read-out: TbrCatL 10’ Inhibition): 103%; inhibition at 5 µM (cruzain; read-out: Cruzain 0’ Inhibition, 0’ (pre-incubation time), sheet "Screening results"): 108%; inhibition at 5 µM (cruzain; read-out: Cruzain 10’ Inhibition, 10’ (pre-incubation time), sheet "Screening results"): 108%; inhibition at 5 µM (cruzain; read-out: Inhibition at 5 µM (Mean ± SEM %) Cruzain 0′, 5 µM, no pre-incubation, initial screening): 100 ± 2%; inhibition at 5 µM (cruzain; read-out: Inhibition at 5 µM (Mean ± SEM %) Cruzain 10′ inc, 5 µM, 10′ pre-incubation, initial screening): 100 ± 1%; inhibition at 5 µM (cruzain; read-out: Inhibition of cruzain or TbrCatL (either enzyme) in the initial screening, 5 µM, either cruzain or TbrCatL, with or without pre-incubation): ≥ 60% |
| Nc1nc2cc(-c3cncc(Oc4ccc(F)cc4)c3)ccc2[nH]1 [MMV687248] | -0.7 | 17 | 17 | 19 | – | – | – | – | – |
| O=C(NC1CC1)c1ccc(N2CCC(Cc3ccccc3)CC2)nc1 [MMV024397] | – | – | – | – | 2.6 | 2.6 | 3 | 6 | – |
| O=C(Nc1nc(-c2ccccn2)cs1)C1CC1c1ccccc1F (stereo not drawn) [MMV1028806] | – | – | – | – | 17 | 3.6 | 24 | 17 | – |
| c1ccc(-c2nc(NC3CCCCC3)cc(C3CC3)n2)nc1 [MMV021013] | – | – | – | – | – | – | – | – | TbrCatL Inhibition 0’ (TbrCatL; [5]): -1.4%; TbrCatL Inhibition 10’ (TbrCatL; [6]): 19%; Cruzain Inhibition 0’ (cruzain; [5]): 9%; Cruzain Inhibition 10’ (cruzain; [6]): 16% |
| COc1ccc(-c2cnc3ccc(N4CCCC4)nn23)cc1OC [MMV023985] | -7 | -1 | -3.2 | -13 | – | – | – | – | – |
| Cc1cc(NCCc2ccccc2)nc(NC(=N)Nc2ccc(Cl)cc2)n1 [MMV021660] | -3.6 | 7 | 11 | 14 | – | – | – | – | – |
| COC(=O)C1=C(C)NC(C)=C(C(=O)OC(C)C)[C@H]1c1cccc2nonc12 [MMV001493] | – | – | – | – | 1.3 | -2.4 | 26 | 12 | – |
| O=C(Nc1ccnc(-c2cccnc2)n1)c1cc(C(F)(F)F)cc(C(F)(F)F)c1 [MMV019838] | – | – | – | – | -8 | -5 | 2 | 16 | – |
| CCCc1ccc(S(=O)(=O)Nc2ccc(CN3CCN(CC4CC4)CC3)cc2)cc1 [MMV688125] | -2.3 | -4.7 | 4.4 | 9 | – | – | – | – | – |
| COc1ccc(OC(C)C(=O)Nc2ccc(Cl)cc2C)cc1 (stereo not drawn) [MMV202458] | – | – | – | – | -16 | -19 | -14 | -11 | – |
| COc1ccc(N(CCc2cccc(C)n2)C(C)=O)cc1 [MMV675995] | -3 | 19 | 2.8 | 1.9 | – | – | – | – | – |
| Cc1cc(C(=O)Nc2ccc(-c3ccccc3)cc2)no1 [MMV020152] | – | – | – | – | -2 | 1.1 | 3.7 | -0.4 | – |
| O=C(Nc1ccc(C(F)(F)F)c(C(F)(F)F)c1)c1cc(Cl)ccc1O [MMV687807] | -4 | -5 | -0.3 | 6 | – | – | – | – | – |
| CCOC(=O)NC(=O)c1ccsc1NC(=O)c1nc2ccccc2s1 [MMV090930] | – | – | – | – | 1.3 | 0.3 | -18 | 3 | – |
| CNC(=O)C1Cc2c([nH]c3cc(Cl)ccc23)C2(CCN(CCc3ccccc3)CC2)N1 (stereo not drawn) [MMV031011] | -11 | -8 | -7.5 | -0.7 | – | – | – | – | – |
| Nc1nc(N)c2c3c(sc2n1)CN(Cc1ccccc1)CC3 [MMV688345] | -1 | 23 | 3.6 | 16 | – | – | – | – | – |
| CC(C)(C)c1cc(C(=O)Nc2cccnc2)cc(C(=O)Nc2cccnc2)c1 [MMV020982] | – | – | – | – | -6 | -7 | 1.3 | -0.5 | – |

| Compound | TbrCatL 0’ Inhibition (TbrCatL; 0’ (pre-incubation time)) [%] | TbrCatL 10’ Inhibition (TbrCatL; 10’ (pre-incubation time)) [%] | Cruzain 0’ Inhibition (cruzain; [1]) [%] | Cruzain 10’ Inhibition (cruzain; [2]) [%] | TbrCatL Inhibition 0’ (TbrCatL; [3]) [%] | TbrCatL Inhibition 10’ (TbrCatL; [4]) [%] | Cruzain Inhibition 0’ (cruzain; [3]) [%] | Cruzain Inhibition 10’ (cruzain; [4]) [%] | further results |
| --- | --- | --- | --- | --- | --- | --- | --- | --- | --- |
| O=C(Nc1cccc(Cl)c1)c1cnc(N2CCN(c3ccncc3)CC2)c(Cl)c1 [MMV024406] | 3 | 20 | 17 | 25 | – | – | – | – | – |
| Cc1ccc(C(=O)Nc2ccc(S(=O)(=O)O)c3cc(S(=O)(=O)O)cc(S(=O)(=O)O)c23)cc1NC(=O)c1cccc(NC(=O)Nc2cccc(C(=O)Nc3cc(C(=O)Nc4ccc(S(=O)(=O)O)c5cc(S(=O)(=O)O)cc(S(=O)(=O)O)c45)ccc3C)c2)c1 [MMV637953] | – | – | – | – | -4.4 | -0.2 | 32 | 21 | – |
| NCCC(O)C(=O)N[C@@H]1C[C@H](N)[C@@H](OC2O[C@H](CN)[C@@H](O)[C@H](O)[C@H]2O)[C@H](O)C1OC1O[C@H](CO)[C@@H](O)[C@H](N)[C@H]1O (stereo partly drawn) [MMV687796] | – | – | – | – | – | – | – | – | TbrCatL Inhibition 0’ (TbrCatL; [5]): -9.5%; TbrCatL Inhibition 10’ (TbrCatL; [6]): -6%; Cruzain Inhibition 0’ (cruzain; [5]): -0.8%; Cruzain Inhibition 10’ (cruzain; [6]): -3.6% |
| Cc1ccc(-c2nc(CN(Cc3ccccn3)C(C)C)cs2)o1 [MMV1088520] | -6 | -24 | -17 | -15 | – | – | – | – | – |
| COc1cc(-c2cc(-c3ccc(S(C)(=O)=O)cc3)cnc2N)ccc1O [MMV010576] | 0.5 | 0.9 | 1.1 | 4 | – | – | – | – | – |
| COc1ccc(C2CC(c3cccs3)=NN2C(=O)c2ccco2)cc1OC (stereo not drawn) [MMV019234] | – | – | – | – | 7 | 22 | 6.6 | 8 | – |
| CN1CCN(c2nccc3[nH]c(-c4cccc(F)c4)cc23)CC1 [MMV393144] | -8.5 | -8 | -15 | -11 | – | – | – | – | – |
| O=C(C1CCN(c2cc(-n3cccc3)ncn2)CC1)N1CCc2ccccc2C1 [MMV687172] | 0.3 | 15 | -2.4 | -1.9 | – | – | – | – | – |
| CC(=O)N1CCN(c2ccc(Oc3ccc(Cl)cc3O)cc2)CC1 [MMV688330] | – | – | – | – | – | – | – | – | TbrCatL Inhibition 0’ (TbrCatL; [5]): -8%; TbrCatL Inhibition 10’ (TbrCatL; [6]): -10%; Cruzain Inhibition 0’ (cruzain; [5]): -3%; Cruzain Inhibition 10’ (cruzain; [6]): -11% |
| CO[C@@H]1CN(c2ccc(C#CC3(O)CN4CCC3CC4)c(Cc3ccccc3)n2)C[C@H]1O (stereo partly drawn) [MMV688415] | – | – | – | – | – | – | – | – | TbrCatL Inhibition 0’ (TbrCatL; [5]): -8%; TbrCatL Inhibition 10’ (TbrCatL; [6]): 3%; Cruzain Inhibition 0’ (cruzain; [5]): -4%; Cruzain Inhibition 10’ (cruzain; [6]): 16% |
| Cc1nc(-c2ccccn2)nc(N2CCC(Cc3ccccc3)C2)c1Cl (stereo not drawn) [MMV659004] | -4.5 | -2.3 | -2 | 12 | – | – | – | – | – |
| Cc1cc(C)nc(-n2nc(C)cc2Nc2ccccc2)n1 [MMV062221] | -32 | -72 | -21 | -3 | – | – | – | – | – |
| O=C(c1ccco1)N(CCCn1ccnc1)c1nc2c(Cl)cccc2s1 [MMV688936] | – | – | – | – | 19 | 0.6 | 5.6 | -0.2 | – |
| CCCCc1ccc(C(=O)Nc2nccc3ccccc23)nc1 [MMV687254] | -7 | -2.6 | -10 | -5 | – | – | – | – | – |
| Cc1cc(C2=NOC(c3cc(Cl)c(F)c(Cl)c3)(C(F)(F)F)C2)ccc1C(=O)NCc1ccc2c(c1)C(C)(C)OB2O (stereo not drawn) [MMV687776] | – | – | – | – | -0.1 | -4.5 | 25 | 17 | – |
| O=C(NC1=NCCS1)c1sc2cc(F)ccc2c1Cl [MMV676584] | – | – | – | – | -0.5 | -9 | -2.7 | 9 | – |
| CCc1cc(=O)n(C)c(SC(C)C(=O)Nc2ccc(F)cc2)n1 (stereo not drawn) [MMV688980] | -11 | -14 | -3.8 | -0.6 | – | – | – | – | – |
